In patent US20100035755A1, “METHOD OF CONTROLLING WEEDS IN A TURF GRASS BY USING SULFONYLUREA COMPOUNDS” (Moghu Research Center Ltd., priority 2008, published 2010):

Experiments:
[1] = system: Perennial rye grass; assay: Turf grass selectivity, greenhouse pot test; format: in vivo
Procedure, shortened: (§1)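 Turf mats transplanted to pots of sandy loam/top soil (1:1), mown weekly to 0.5-1.0 cm and grown one month in greenhouse (25˜30° C. day, 15˜25° C. night). Test chemicals sprayed at 400, 200, 100, 50, 25, 12, 6, 3 g ai/ha in 2,000 L/ha tap-water dilution; three replicates, randomised, averaged.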

[2] = system: Zoysia japonica; assay: Turf grass selectivity, greenhouse pot test; format: in vivo; conditions: for phytotoxicity (visual assessment 0-10): Zoysia japonica
Procedure, shortened: as §1

[3] = system: Bentgrass; assay: Turf grass selectivity, greenhouse pot test; format: in vivo, Agrostris palustris
Procedure, shortened: as §1

[4] = system: Kentucky bluegrass; assay: Turf grass selectivity, greenhouse pot test; format: in vivo, Poa pratensis
Procedure, shortened: as §1

[5] = system: Dandelion; assay: Weed spectrum, greenhouse pot test; format: in vivo; conditions: two weeks after application
[6] = system: Cyperus amuricus; assay: Weed spectrum, greenhouse pot test; format: in vivo; conditions: two weeks after application
Procedure, shortened: (§2)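 Scores reflect visual weed control two weeks after spraying, where 0 means no effect and 100 complete control. Plants grew in a greenhouse at 25˜30° C by day and 15˜25° C by night, with treatment either at sowing or at three-leaf stage.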

[7] = system: Trifolium repens; assay: Weed spectrum, greenhouse pot test; format: in vivo; conditions: two weeks after application
Procedure, shortened: as §2

COc1nc(C)nc(NC(=O)NS(=O)(=O)c2cscc2C2(CF)OCCO2)n1 [Example 2, 3-(2-fluoromethyl-1,3-dioxalan-2-yl)-N-[(4-methoxy-6-methyltriazin-2-yl)aminocarbonyl]4-thiophene sulfonamide]
phytotoxicity (visual assessment 0-10) ([1]; 3 g ai/ha, 2 weeks): 3
phytotoxicity (visual assessment 0-10) ([1]; 3 g ai/ha, 4 weeks): 1
phytotoxicity (visual assessment 0-10) ([1]; 6 g ai/ha, 2 weeks): 5
phytotoxicity (visual assessment 0-10) ([1]; 6 g ai/ha, 4 weeks): 3
phytotoxicity (visual assessment 0-10) ([1]; 12 g ai/ha, 2 weeks): 7
phytotoxicity (visual assessment 0-10) ([1]; 12 g ai/ha, 4 weeks): 5
phytotoxicity (visual assessment 0-10) ([1]; 25 g ai/ha, 2 weeks): 10
phytotoxicity (visual assessment 0-10) ([1]; 25 g ai/ha, 4 weeks): 10
phytotoxicity (visual assessment 0-10) ([1]; 50 g ai/ha, 2 weeks): 10
phytotoxicity (visual assessment 0-10) ([1]; 50 g ai/ha, 4 weeks): 10
phytotoxicity (visual assessment 0-10) ([1]; 100 g ai/ha, 2 weeks): 10
phytotoxicity (visual assessment 0-10) ([1]; 100 g ai/ha, 4 weeks): 10
phytotoxicity (visual assessment 0-10) ([1]; 200 g ai/ha, 2 weeks): 10
phytotoxicity (visual assessment 0-10) ([1]; 200 g ai/ha, 4 weeks): 10
phytotoxicity (visual assessment 0-10) ([1]; 400 g ai/ha, 2 weeks): 10
phytotoxicity (visual assessment 0-10) ([1]; 400 g ai/ha, 4 weeks): 10
safety to Zoysia japonica ([2]; 100 g ai/ha or less): high safety
phytotoxicity (visual assessment 0-10) ([2]; 3 g ai/ha, 2 weeks): 0
phytotoxicity (visual assessment 0-10) ([2]; 3 g ai/ha, 4 weeks): 0
phytotoxicity (visual assessment 0-10) ([2]; 6 g ai/ha, 2 weeks): 0
phytotoxicity (visual assessment 0-10) ([2]; 6 g ai/ha, 4 weeks): 0
phytotoxicity (visual assessment 0-10) ([2]; 12 g ai/ha, 2 weeks): 0
phytotoxicity (visual assessment 0-10) ([2]; 12 g ai/ha, 4 weeks): 0
phytotoxicity (visual assessment 0-10) ([2]; 25 g ai/ha, 2 weeks): 0
phytotoxicity (visual assessment 0-10) ([2]; 25 g ai/ha, 4 weeks): 0
phytotoxicity (visual assessment 0-10) ([2]; 50 g ai/ha, 2 weeks): 0
phytotoxicity (visual assessment 0-10) ([2]; 50 g ai/ha, 4 weeks): 0
phytotoxicity (visual assessment 0-10) ([2]; 100 g ai/ha, 2 weeks): 1
phytotoxicity (visual assessment 0-10) ([2]; 100 g ai/ha, 4 weeks): 0
phytotoxicity (visual assessment 0-10) ([2]; 200 g ai/ha, 2 weeks): 2
phytotoxicity (visual assessment 0-10) ([2]; 200 g ai/ha, 4 weeks): 1
phytotoxicity (visual assessment 0-10) ([2]; 400 g ai/ha, 2 weeks): 4
phytotoxicity (visual assessment 0-10) ([2]; 400 g ai/ha, 4 weeks): 3
phytotoxicity (visual assessment 0-10) ([3]; 3 g ai/ha, 2 weeks): 3
phytotoxicity (visual assessment 0-10) ([3]; 3 g ai/ha, 4 weeks): 1
phytotoxicity (visual assessment 0-10) ([3]; 6 g ai/ha, 2 weeks): 5
phytotoxicity (visual assessment 0-10) ([3]; 6 g ai/ha, 4 weeks): 3
phytotoxicity (visual assessment 0-10) ([3]; 12 g ai/ha, 2 weeks): 7
phytotoxicity (visual assessment 0-10) ([3]; 12 g ai/ha, 4 weeks): 5
phytotoxicity (visual assessment 0-10) ([3]; 25 g ai/ha, 2 weeks): 10
phytotoxicity (visual assessment 0-10) ([3]; 25 g ai/ha, 4 weeks): 10
phytotoxicity (visual assessment 0-10) ([3]; 50 g ai/ha, 2 weeks): 10
phytotoxicity (visual assessment 0-10) ([3]; 50 g ai/ha, 4 weeks): 10
phytotoxicity (visual assessment 0-10) ([3]; 100 g ai/ha, 2 weeks): 10
phytotoxicity (visual assessment 0-10) ([3]; 100 g ai/ha, 4 weeks): 10
phytotoxicity (visual assessment 0-10) ([3]; 200 g ai/ha, 2 weeks): 10
phytotoxicity (visual assessment 0-10) ([3]; 200 g ai/ha, 4 weeks): 10
phytotoxicity (visual assessment 0-10) ([3]; 400 g ai/ha, 2 weeks): 10
phytotoxicity (visual assessment 0-10) ([3]; 400 g ai/ha, 4 weeks): 10
phytotoxicity (visual assessment 0-10) ([4]; 3 g ai/ha, 2 weeks): 3
phytotoxicity (visual assessment 0-10) ([4]; 3 g ai/ha, 4 weeks): 1
phytotoxicity (visual assessment 0-10) ([4]; 6 g ai/ha, 2 weeks): 5
phytotoxicity (visual assessment 0-10) ([4]; 6 g ai/ha, 4 weeks): 3
phytotoxicity (visual assessment 0-10) ([4]; 12 g ai/ha, 2 weeks): 7
phytotoxicity (visual assessment 0-10) ([4]; 12 g ai/ha, 4 weeks): 5
phytotoxicity (visual assessment 0-10) ([4]; 25 g ai/ha, 2 weeks): 10
phytotoxicity (visual assessment 0-10) ([4]; 25 g ai/ha, 4 weeks): 10
phytotoxicity (visual assessment 0-10) ([4]; 50 g ai/ha, 2 weeks): 10
phytotoxicity (visual assessment 0-10) ([4]; 50 g ai/ha, 4 weeks): 10
phytotoxicity (visual assessment 0-10) ([4]; 100 g ai/ha, 2 weeks): 10
phytotoxicity (visual assessment 0-10) ([4]; 100 g ai/ha, 4 weeks): 10
phytotoxicity (visual assessment 0-10) ([4]; 200 g ai/ha, 2 weeks): 10
phytotoxicity (visual assessment 0-10) ([4]; 200 g ai/ha, 4 weeks): 10
phytotoxicity (visual assessment 0-10) ([4]; 400 g ai/ha, 2 weeks): 10
phytotoxicity (visual assessment 0-10) ([4]; 400 g ai/ha, 4 weeks): 10
efficacy (0-100 scale) ([5]; Post-emergence, 12 g ai/ha): 90
efficacy (0-100 scale) ([5]; Post-emergence, 25 g ai/ha): 90
efficacy (0-100 scale) ([5]; Post-emergence, 50 g ai/ha): 100
efficacy (0-100 scale) ([5]; Post-emergence, 100 g ai/ha): 100
efficacy (0-100 scale) ([5]; Pre-emergence, 12 g ai/ha): 90
efficacy (0-100 scale) ([5]; Pre-emergence, 25 g ai/ha): 90
efficacy (0-100 scale) ([5]; Pre-emergence, 50 g ai/ha): 100
efficacy (0-100 scale) ([5]; Pre-emergence, 100 g ai/ha): 100
efficacy (0-100 scale) ([6]; Post-emergence, 12 g ai/ha): 30
efficacy (0-100 scale) ([6]; Post-emergence, 25 g ai/ha): 40
efficacy (0-100 scale) ([6]; Post-emergence, 50 g ai/ha): 50
efficacy (0-100 scale) ([6]; Post-emergence, 100 g ai/ha): 50
efficacy (0-100 scale) ([6]; Pre-emergence, 12 g ai/ha): 20
efficacy (0-100 scale) ([6]; Pre-emergence, 25 g ai/ha): 30
efficacy (0-100 scale) ([6]; Pre-emergence, 50 g ai/ha): 50
efficacy (0-100 scale) ([6]; Pre-emergence, 100 g ai/ha): 60
efficacy (0-100 scale) ([7]; Post-emergence, 12 g ai/ha): 40
efficacy (0-100 scale) ([7]; Post-emergence, 25 g ai/ha): 50
efficacy (0-100 scale) ([7]; Post-emergence, 50 g ai/ha): 60
efficacy (0-100 scale) ([7]; Post-emergence, 100 g ai/ha): 60
efficacy (0-100 scale) ([7]; Pre-emergence, 12 g ai/ha): 30
efficacy (0-100 scale) ([7]; Pre-emergence, 25 g ai/ha): 60
efficacy (0-100 scale) ([7]; Pre-emergence, 50 g ai/ha): 70
efficacy (0-100 scale) ([7]; Pre-emergence, 100 g ai/ha): 90
